Source: patent US20060003989A1, “Compositions and methods using acetylcholinesterase (ACE) inhibitors to treat central nervous system (CNS) disorders in mammals” (priority 2002, published 2006)
Values joined by “and” are separate entries in the source; they are usually repeats but may differ in a detail not shown here. Equal values may be shown once. Where a name gives a salt, the structure may show the parent alone.

Experiments:
cholinesterase = conditions: in rats; cited from earlier work
[1] = Solubility test in purified water (concentration by HPLC)
[2] = cited from earlier work
[3] = Intranasal vs oral galantamine PK (plasma) in ferrets
ferrets = test: Emetic response assay in ferrets; conditions: observed for 4 hours
Description: • 8 naïve ferrets/dosing group; Nasal versus Oral • Emetic Response Assay • The assay was based on a validated method. Ferrets were monitored and observed for episodes of retching and/or vomiting for 4 hours. • Two formulations dosed: • Emetic Response Assay • The assay was based on a validated method.

[4] = Intranasal vs oral galantamine PK in canine subject (plasma, CSF); conditions: dog, 0.8 mg/kg; for Tmax: plasma
[5] = Rivastigmine intranasal vs oral PK in rats (CSF and plasma); conditions: single intranasal dose
Description: The formulation is administered intranasally or by gastric insertion of a capsule containing the commercial formulation to 12 groups of 6 rats prepped with an indwelling jugular cannula and heparin lock. […] Subsequently, each subject undergoes lumbar puncture with local anaesthesia (xylocalne s.c.), with the retrieval of 50 uL of cerebralspinal fluid (CSF). A paired blood sample from each animal is collected. By assigning groups to different timepoints, the whole PK curve can be assembled. The first CSF sample is collected 5 minutes post dosing and subsequent samples were collected at 20, 50, 75, 100 and 400 minutes.
CSF samples are frozen until analysis.

[6] = system: in vitro epithelial tissue model; test: TER in in vitro epithelial tissue model with PN159 and galantamine lactate; format: cell-based; conditions: 25, 50, 100 μM PN159 in the presence of 40 mg/ml galantamine lactate; controls applied apically

O=C(CCC1CCN(Cc2ccccc2)CC1)c1ccc2c(c1)NCCCC2 [TAK-147, 3-[1-(phenylmethyl)-4-piperidinyl]-1-(2,3,4,5-tetrahydro-1H-1-benzazepin-8-yl)-1-propanone]
minimal therapeutic concentration (MTC) (cholinesterase): 1.1 nmol/gm

COc1ccc2c3c1O[C@H]1C[C@@H](O)C=C[C@@]31CCN(C)C2.O=C(O)[C@H](O)[C@@H](O)[C@H](O)[C@H](O)CO [galantamine gluconate]
solubility in water [1]: ~1390 mM

COc1ccc2c3c1O[C@H]1C[C@@H](O)C=C[C@@]31CCN(C)C2 [galantamine hydrobromide]
generally reported solubility in water [2]: 50 mM | solubility ([1]; purified water, thermodynamic from solid): ~35000 µg/mL and ~121000 µM

CC(O)C(=O)O.COc1ccc2c3c1O[C@H]1C[C@@H](O)C=C[C@@]31CCN(C)C2 [galantamine lactate]
solubility in water [1]: ~1390 mM

COc1ccc2c3c1O[C@H]1C[C@@H](O)C=C[C@@]31CCN(C)C2 [galantamine]
bioavailability ([3]; ferret, plasma, other: intranasal compared to oral): ~70% | Tmax, plasma, intranasal compared to oral ([3]; ferrets, intranasal 200 mg/ml formulation vs Reminyl oral solution): decreased Tmax | Cmax, plasma, intranasal compared to oral ([3]; ferrets, intranasal vs oral): about 4 fold | incidence of retching / emesis, intranasal vs oral (ferrets): dramatic reduction in emesis | Tmax in CSF, intranasal vs oral [4]: same trend was observed in the CSF | Tmax ([4]; inhaled or intranasal): ~0.5 h | Tmax ([4]; po): 2 to 3 h

CCN(C)C(=O)Oc1cccc([C@H](C)N(C)C)c1 [rivastigmine]
rivastigmine concentration in CSF after intranasal administration [5]: peaks at a level higher than therapeutic levels reported for plasma following oral dosage in man

Nc1c2c(nc3ccccc13)CCCC2 [tacrine]
minimal therapeutic concentration (MTC) (cholinesterase): 3.5 nmol/gm

triton X
effect on TER [6]: did reduce TER
